Experimental data reported in PubChem BioAssay AID2060886 (Molecular Pharmacology Branch, DTP, NCI, 2025).

Test system: 653999-131-R-J2-PDC complex spheroids, growth inhibition
Test: Anticancer human tumor 653999-131-R-J2-PDC patient-derived lung adenocarcinoma cell line growth inhibition [RAS]
Settings: for viability, T/C: stronger effect = lower value
Outline: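 Multi-cell-type spheroids: tumor cells plus HUVEC endothelial cells and mesenchymal stem cells. RAS-pathway inhibitors were combined with targeted agents, each dosed in half-log steps down from clinical Cmax, or from 10 microM when Cmax was unknown.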

[1] = curve of first compound, second compound 0.000949 µM
[2] = curve of first compound, second compound 0.003 µM
[3] = curve of first compound, second compound 0.00949 µM
[4] = curve of first compound, second compound 0.03 µM
[5] = curve of first compound, second compound 0.0949 µM
[6] = curve of first compound, second compound 0.3 µM
[7] = second compound 0.000949 µM, first compound 0.00316 µM
[8] = second compound 0.000949 µM, first compound 0.01 µM
[9] = second compound 0.000949 µM, first compound 0.0316 µM
[10] = second compound 0.000949 µM, first compound 0.1 µM
[11] = second compound 0.000949 µM, first compound 0.316 µM
[12] = second compound 0.000949 µM, first compound 1 µM
[13] = second compound 0.003 µM, first compound 0.00316 µM
[14] = second compound 0.003 µM, first compound 0.01 µM
[15] = second compound 0.003 µM, first compound 0.0316 µM
[16] = second compound 0.003 µM, first compound 0.1 µM
[17] = second compound 0.003 µM, first compound 0.316 µM
[18] = second compound 0.003 µM, first compound 1 µM
[19] = second compound 0.00949 µM, first compound 0.00316 µM
[20] = second compound 0.00949 µM, first compound 0.01 µM
[21] = second compound 0.00949 µM, first compound 0.0316 µM
[22] = second compound 0.00949 µM, first compound 0.1 µM
[23] = second compound 0.00949 µM, first compound 0.316 µM
[24] = second compound 0.00949 µM, first compound 1 µM
[25] = second compound 0.03 µM, first compound 0.00316 µM
[26] = second compound 0.03 µM, first compound 0.01 µM
[27] = second compound 0.03 µM, first compound 0.0316 µM
[28] = second compound 0.03 µM, first compound 0.1 µM
[29] = second compound 0.03 µM, first compound 0.316 µM
[30] = second compound 0.03 µM, first compound 1 µM
[31] = second compound 0.0949 µM, first compound 0.00316 µM
[32] = second compound 0.0949 µM, first compound 0.01 µM
[33] = second compound 0.0949 µM, first compound 0.0316 µM
[34] = second compound 0.0949 µM, first compound 0.1 µM
[35] = second compound 0.0949 µM, first compound 0.316 µM
[36] = second compound 0.0949 µM, first compound 1 µM
[37] = second compound 0.3 µM, first compound 0.00316 µM
[38] = second compound 0.3 µM, first compound 0.01 µM
[39] = second compound 0.3 µM, first compound 0.0316 µM
[40] = second compound 0.3 µM, first compound 0.1 µM
[41] = second compound 0.3 µM, first compound 0.316 µM
[42] = second compound 0.3 µM, first compound 1 µM
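Note: spheroids exposed to the agents for seven days before the readout.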

## C=CC(=O)N1CCN(c2nc(OCC3CCCN3C)nc3c(F)c(-c4nc(N)cc(C)c4C(F)(F)F)c(Cl)cc23)C(C)C1 (configuration not stated) + CCn1c(-c2cccnc2C(C)OC)c2c3cc(ccc31)N1CCOC(CC(NC(=O)C(C(C)C)N(C)C(=O)C3(F)CCN(C(=O)C#CC(C)(C)N(C)C)CC3)C(=O)N3CCCC(N3)C(=O)OCC(C)(C)C2)C1
[1]
  IC50: > 1000 nM
[2]
  IC50: > 1000 nM
[3]
  IC50: > 1000 nM
[4]
  IC50: > 1000 nM
[5]
  IC50: > 1000 nM
[6]
  IC50: > 1000 nM
[7]
  viability, T/C: 94.1%
[8]
  viability, T/C: 103%
[9]
  viability, T/C: 101%
[10]
  viability, T/C: 98.3%
[11]
  viability, T/C: 103%
[12]
  viability, T/C: 91.5%
[13]
  viability, T/C: 113%
[14]
  viability, T/C: 101%
[15]
  viability, T/C: 102%
[16]
  viability, T/C: 98.9%
[17]
  viability, T/C: 99.8%
[18]
  viability, T/C: 104%
[19]
  viability, T/C: 93.2%
[20]
  viability, T/C: 104%
[21]
  viability, T/C: 102%
[22]
  viability, T/C: 96.9%
[23]
  viability, T/C: 109%
[24]
  viability, T/C: 106%
[25]
  viability, T/C: 102%
[26]
  viability, T/C: 99.2%
[27]
  viability, T/C: 104%
[28]
  viability, T/C: 91.6%
[29]
  viability, T/C: 114%
[30]
  viability, T/C: 101%
[31]
  viability, T/C: 84.2%
[32]
  viability, T/C: 107%
[33]
  viability, T/C: 112%
[34]
  viability, T/C: 107%
[35]
  viability, T/C: 108%
[36]
  viability, T/C: 102%
[37]
  viability, T/C: 103%
[38]
  viability, T/C: 98.9%
[39]
  viability, T/C: 111%
[40]
  viability, T/C: 108%
[41]
  viability, T/C: 104%
[42]
  viability, T/C: 96.8%

## C#Cc1c(F)ccc2cc(O)cc(-c3ncc4c(N5CC6CCC(C5)N6)nc(OCC56CCCN5CC(F)C6)nc4c3F)c12 (configuration not stated)
Compound 0.0316 µM
  viability, T/C: 99% [middle of 8 runs]
Compound 0.1 µM
  viability, T/C: 89.6% [middle of 8 runs]
Compound 0.316 µM
  viability, T/C: 71.2% [middle of 8 runs]
Compound 1 µM
  viability, T/C: 58.1% [middle of 8 runs]
Compound 3.16 µM
  viability, T/C: 43.8% [middle of 8 runs]
Compound 10 µM
  viability, T/C: 31.8% [middle of 8 runs]
Compound alone, run of 09/09/2024
  IC50: 1.88 µM [middle of 8 runs]

## C=CC(=O)Nc1cc(Nc2nccc(-c3cn(C)c4ccccc34)n2)c(OC)cc1N(C)CCN(C)C + CCn1c(-c2cccnc2C(C)OC)c2c3cc(ccc31)N1CCOC(CC(NC(=O)C(C(C)C)N(C)C(=O)C3(F)CCN(C(=O)C#CC(C)(C)N(C)C)CC3)C(=O)N3CCCC(N3)C(=O)OCC(C)(C)C2)C1
[1]
  IC50: > 1000 nM
[2]
  IC50: 318 nM
[3]
  IC50: 562 nM
[4]
  IC50: 450 nM
[5]
  IC50: 717 nM
[6]
  IC50: 697 nM
[7]
  viability, T/C: 86.2%
[8]
  viability, T/C: 82.3%
[9]
  viability, T/C: 97.7%
[10]
  viability, T/C: 64.7%
[11]
  viability, T/C: 64.2%
[12]
  viability, T/C: 49.2%
[13]
  viability, T/C: 90.1%
[14]
  viability, T/C: 95.8%
[15]
  viability, T/C: 86.3%
[16]
  viability, T/C: 67.1%
[17]
  viability, T/C: 52.5%
[18]
  viability, T/C: 37.8%
[19]
  viability, T/C: 80.5%
[20]
  viability, T/C: 84.8%
[21]
  viability, T/C: 93.2%
[22]
  viability, T/C: 85.7%
[23]
  viability, T/C: 55%
[24]
  viability, T/C: 45%
[25]
  viability, T/C: 87.1%
[26]
  viability, T/C: 97.6%
[27]
  viability, T/C: 84.2%
[28]
  viability, T/C: 82.5%
[29]
  viability, T/C: 52.6%
[30]
  viability, T/C: 43.6%
[31]
  viability, T/C: 79.4%
[32]
  viability, T/C: 76.5%
[33]
  viability, T/C: 115%
[34]
  viability, T/C: 89.8%
[35]
  viability, T/C: 59.6%
[36]
  viability, T/C: 46.1%
[37]
  viability, T/C: 78.7%
[38]
  viability, T/C: 104%
[39]
  viability, T/C: 94.8%
[40]
  viability, T/C: 94.1%
[41]
  viability, T/C: 61.7%
[42]
  viability, T/C: 44.6%

## CC1(O)CCCC1n1c(=O)c(C(F)F)cc2cnc(NC3CCN(S(C)(=O)=O)CC3)nc21 (configuration not stated)
Compound 0.0316 µM
  viability, T/C: 89.5% [middle of 4 runs]
Compound 0.1 µM
  viability, T/C: 69.3% [middle of 4 runs]
Compound 0.316 µM
  viability, T/C: 65.3% [middle of 4 runs]
Compound 1 µM
  viability, T/C: 66.8% [middle of 4 runs]
Compound 3.16 µM
  viability, T/C: 73.8% [middle of 4 runs]
Compound 10 µM
  viability, T/C: 35.3% [middle of 4 runs]
Curve of compound
  IC50: 6.68 µM [middle of 4 runs]

## C=CC(=O)Nc1cc(Nc2nccc(-c3cn(C)c4ccccc34)n2)c(OC)cc1N(C)CCN(C)C + CCn1c(-c2cc(N3CCN(C)CC3)cnc2C(C)OC)c2c3cc(ccc31)-c1csc(n1)CC(NC(=O)C1CC1C)C(=O)N1CCCC(N1)C(=O)OCC(C)(C)C2
[1]
  IC50: 816 nM
[2]
  IC50: 106 nM
[3]
  IC50: < 3.16 nM
[4]
  IC50: < 3.16 nM
[5]
  IC50: < 3.16 nM
[6]
  IC50: < 3.16 nM
[7]
  viability, T/C: 88.7%
[8]
  viability, T/C: 75.9%
[9]
  viability, T/C: 56.2%
[10]
  viability, T/C: 76%
[11]
  viability, T/C: 56.7%
[12]
  viability, T/C: 44.5%
[13]
  viability, T/C: 80.6%
[14]
  viability, T/C: 63.7%
[15]
  viability, T/C: 59%
[16]
  viability, T/C: 52.9%
[17]
  viability, T/C: 43.1%
[18]
  viability, T/C: 37.2%
[19]
  viability, T/C: 47.3%
[20]
  viability, T/C: 39.5%
[21]
  viability, T/C: 36.7%
[22]
  viability, T/C: 38%
[23]
  viability, T/C: 31.6%
[24]
  viability, T/C: 23.2%
[25]
  viability, T/C: 36.4%
[26]
  viability, T/C: 29.9%
[27]
  viability, T/C: 28%
[28]
  viability, T/C: 37.2%
[29]
  viability, T/C: 28.8%
[30]
  viability, T/C: 16.2%
[31]
  viability, T/C: 25.3%
[32]
  viability, T/C: 25.1%
[33]
  viability, T/C: 20.9%
[34]
  viability, T/C: 16.8%
[35]
  viability, T/C: 18.6%
[36]
  viability, T/C: 12.7%
[37]
  viability, T/C: 18.2%
[38]
  viability, T/C: 26.2%
[39]
  viability, T/C: 22.1%
[40]
  viability, T/C: 22.1%
[41]
  viability, T/C: 16.6%
[42]
  viability, T/C: 11.2%

## NC1c2ccccc2OC12CCN(c1cnc3c(N4CCCc5ncccc54)n[nH]c3n1)CC2 (configuration not stated) + CCn1c(-c2cccnc2C(C)OC)c2c3cc(ccc31)N1CCOC(CC(NC(=O)C(C(C)C)N(C)C(=O)C3(F)CCN(C(=O)C#CC(C)(C)N(C)C)CC3)C(=O)N3CCCC(N3)C(=O)OCC(C)(C)C2)C1
[1]
  IC50: > 10000 nM
[2]
  IC50: > 10000 nM
[3]
  IC50: > 10000 nM
[4]
  IC50: > 10000 nM
[5]
  IC50: > 10000 nM
[6]
  IC50: > 10000 nM
[9]
  viability, T/C: 74.6%
[10]
  viability, T/C: 75.4%
[11]
  viability, T/C: 82.6%
[12]
  viability, T/C: 71.6%
Second compound 0.000949 µM, first compound 3.16 µM
  viability, T/C: 71.9%
Second compound 0.000949 µM, first compound 10 µM
  viability, T/C: 85.5%
[15]
  viability, T/C: 83.4%
[16]
  viability, T/C: 83.3%
[17]
  viability, T/C: 75.5%
[18]
  viability, T/C: 67%
Second compound 0.003 µM, first compound 3.16 µM
  viability, T/C: 75.8%
Second compound 0.003 µM, first compound 10 µM
  viability, T/C: 77.5%
[21]
  viability, T/C: 70.3%
[22]
  viability, T/C: 82.2%
[23]
  viability, T/C: 67.6%
[24]
  viability, T/C: 76.2%
Second compound 0.00949 µM, first compound 3.16 µM
  viability, T/C: 72.3%
Second compound 0.00949 µM, first compound 10 µM
  viability, T/C: 65.3%
[27]
  viability, T/C: 68.9%
[28]
  viability, T/C: 66.2%
[29]
  viability, T/C: 64.1%
[30]
  viability, T/C: 72%
Second compound 0.03 µM, first compound 3.16 µM
  viability, T/C: 76.2%
Second compound 0.03 µM, first compound 10 µM
  viability, T/C: 67.7%
[33]
  viability, T/C: 78.6%
[34]
  viability, T/C: 71.4%
[35]
  viability, T/C: 73.5%
[36]
  viability, T/C: 71.9%
Second compound 0.0949 µM, first compound 3.16 µM
  viability, T/C: 72.1%
Second compound 0.0949 µM, first compound 10 µM
  viability, T/C: 73.5%
[39]
  viability, T/C: 83.8%
[40]
  viability, T/C: 72.2%
[41]
  viability, T/C: 87.3%
[42]
  viability, T/C: 79.6%
Second compound 0.3 µM, first compound 3.16 µM
  viability, T/C: 70%
Second compound 0.3 µM, first compound 10 µM
  viability, T/C: 71.7%
